The test system of assay [1] is rhIFNγ stimulated STAT-3 phosphorylation in the A549 human epithelial cell line. As to the kind of experiment: A549 Cell Assay: Inhibition of pSTAT3. It is filed as cell-based. Conditions: Homo sapiens; A549 cells. The method, boiled down:
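Percent inhibition of STAT3 Tyr705 phosphorylation was measured by MSD immunoassay of cell lysates. A549 cells were given compound for 1 h at 37° C (final 0.3 nM to 10 μM, 0.1% DMSO, in 0.2% BSA DMEM), followed by 30 min of rhIFNγ stimulation at 20 ng/mL final. Unstimulated DMSO wells served as background.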

In assay [2] the test system is rhIL-2 stimulated STAT5 phosphorylation in isolated human T cells. As to the kind of experiment: Human T Cell Assay: Inhibition of pSTAT5. It is filed as cell-based. The procedure:
Human T Cell Assay: Inhibition of pSTAT5
An assay measuring the efficacy of JAK inhibitors on the functional response of recombinant human interleukin-2 (rhIL-2) stimulated STAT5 phosphorylation in isolated human T cells.
Human whole blood from individual donors was collected from the phlebotomy unit on-site. Peripheral venous blood (30-60 mL) from healthy volunteers of either sex was used as the source of T cells. T cell isolation from venous whole blood is routinely performed in a class II microbiological safety cabinet. Each sample was collected into between 3 and 6 10 mL Sodium Heparin Vacutainer tubes (BD #367874). The blood was poured into sterile 50 mL conicals (Corning #430828) and incubated with the T cell Rosette Sep Cocktail (Stemcell Technologies #15061) at 50 μL/mL antibody/blood ratio for 20 min. with shaking at room temperature. The blood/antibody mixture was then diluted 1:2 with PBS (Pfizer media prep)/2% FBS (Sigma #F4135) and 30 mL of the mixture was layered onto 15 mL Ficoll-Hypaque (GE Healthcare #17-1440-03) in 50 mL conical tubes. The tubes were then centrifuged at 1200×g for 20 min. at room temperature with no brake. Following centrifugation the T cells formed a buffy coat between the Ficoll-Hypaque and plasma layers. The plasma above the buffy coats was removed to within 5 mm of the buffy coat using a sterile Pasteur pipette. The buffy coats were then collected into fresh sterile 50 mL conical tubes containing 25 mL PBS/2% FBS (2 buffy coats per 50 mL conical). PBS/2% FBS was added to the buffy coat cells such that the final volume in the tube was 50 mL. The tubes were then centrifuged at 200×g for 15 min. at room temperature. The supernatant was discarded and the pellet re-suspended in 10-20 mL of DMEM (Pfizer media prep) Assay media/0.2% BSA (Miltenyi #130-091-376). A differential cell count was performed using a haemacytometer and cells were diluted to 1.1×10^6 T cells/ml in DMEM/0.2% BSA media. Compounds (10 mM-0.3 μM) were diluted with Hanks Balanced Salt Solution (HBSS) (Sigma #H6648) at 1:100 dilution. Immediately following cell isolation and compound dilution, 90 μl/well of T cells (˜1×10^6/ml) in assay medium (DMEM+0.2% BSA) was added to the VWR Deep well V bottom plate (#3906-520-300). 10 μl/well of compound (final concentration range of 10 μM-0.3 nM with 0.1% DMSO) or 0.1% DMSO in HBSS as controls was added to the appropriate wells. Plates were incubated for 1 hour at 37° C., 5% CO2 incubator. 10 μl of 3.3 μg/mL rhIL-2 (R&D Systems #202-IL) was added to the cells (300 ng/ml final assay concentration). Wells containing T cells, medium with 0.1% DMSO and no rhIL-2 were used as background controls. Plates were incubated for 15 min at 37° C. After rhIL-2 stimulation, 800 μL of cold PBS/0.1% BSA was added and the plates were centrifuged at 1400 rpm for 5 min at 4° C. Supernatant was aspirated and 100 μL of ice-cold MSD lysis buffer containing protease and phosphatase inhibitors from Phospho-STAT5a/b Tyr694 assay kit (Meso-Scale Discovery #K150IGD) was added to the cell pellet. Plates were shaken for 30 min. at 4° C. and then frozen overnight. The following day, cell lysates were assayed using the MSD ELISA kit protocol for detection of pSTAT5.
Data were collected and transformed into percent inhibition and calculated using the following formula: […]

In assay [3] the target is TYK2 (Homo sapiens (Human), UniProt P29597). The assay is described as follows: JAK Caliper Enzyme Assay at 1 mM ATP (TYK2). It is filed as biochemical. As to conditions: Caliper assay at 1 mM ATP.
The target of assay [4] is JAK1 (Homo sapiens (Human), UniProt P23458). As to the kind of experiment: JAK Caliper Enzyme Assay at 1 mM ATP (JAK1). It is filed as biochemical. As to conditions: Caliper assay at 1 mM ATP.
The target of assay [5] is JAK2 (Homo sapiens (Human), UniProt O60674). The assay is described as follows: JAK Caliper Enzyme Assay at 1 mM ATP (JAK2). Conditions: Caliper assay at 1 mM ATP. It is filed as biochemical.
Assay [6] deals with JAK3 (Homo sapiens (Human), UniProt P52333). As to the kind of experiment: JAK Caliper Enzyme Assay at 1 mM ATP (JAK3). It is filed as biochemical. Conditions: Caliper assay at 1 mM ATP.

pIC50: −log10 of the molar value. Where a name gives a salt, the structure may show the parent alone.

JAK1, sequence (P23458 whole entry): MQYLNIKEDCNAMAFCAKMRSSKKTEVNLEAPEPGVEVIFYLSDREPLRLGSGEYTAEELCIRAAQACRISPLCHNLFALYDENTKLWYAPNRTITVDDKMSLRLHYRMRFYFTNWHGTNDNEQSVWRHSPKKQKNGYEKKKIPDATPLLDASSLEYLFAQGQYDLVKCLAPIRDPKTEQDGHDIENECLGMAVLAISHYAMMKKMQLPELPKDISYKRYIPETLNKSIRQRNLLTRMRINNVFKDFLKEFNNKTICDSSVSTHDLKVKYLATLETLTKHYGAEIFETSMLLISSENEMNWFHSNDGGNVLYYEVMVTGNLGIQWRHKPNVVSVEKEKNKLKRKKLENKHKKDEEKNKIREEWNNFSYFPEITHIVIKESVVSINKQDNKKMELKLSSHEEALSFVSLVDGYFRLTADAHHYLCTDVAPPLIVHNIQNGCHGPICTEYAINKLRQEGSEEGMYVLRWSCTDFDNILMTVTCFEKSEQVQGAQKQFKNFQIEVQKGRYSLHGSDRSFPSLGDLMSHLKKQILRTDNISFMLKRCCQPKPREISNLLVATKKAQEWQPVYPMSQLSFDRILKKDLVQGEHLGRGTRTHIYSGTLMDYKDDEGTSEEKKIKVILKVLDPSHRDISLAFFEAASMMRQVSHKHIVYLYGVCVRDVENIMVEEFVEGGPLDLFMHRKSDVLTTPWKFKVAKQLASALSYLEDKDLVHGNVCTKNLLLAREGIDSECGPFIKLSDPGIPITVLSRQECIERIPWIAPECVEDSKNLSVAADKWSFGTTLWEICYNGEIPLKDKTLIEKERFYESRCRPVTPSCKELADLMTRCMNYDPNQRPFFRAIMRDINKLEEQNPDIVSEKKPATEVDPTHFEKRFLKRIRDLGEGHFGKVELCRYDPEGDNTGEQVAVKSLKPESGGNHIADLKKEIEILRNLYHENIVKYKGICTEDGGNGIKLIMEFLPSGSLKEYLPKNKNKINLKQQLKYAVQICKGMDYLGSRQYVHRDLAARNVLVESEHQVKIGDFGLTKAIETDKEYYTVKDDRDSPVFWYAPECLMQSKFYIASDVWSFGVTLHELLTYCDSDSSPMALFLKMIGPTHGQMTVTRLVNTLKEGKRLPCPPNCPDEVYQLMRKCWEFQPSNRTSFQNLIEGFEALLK
JAK2, sequence (O60674 whole entry): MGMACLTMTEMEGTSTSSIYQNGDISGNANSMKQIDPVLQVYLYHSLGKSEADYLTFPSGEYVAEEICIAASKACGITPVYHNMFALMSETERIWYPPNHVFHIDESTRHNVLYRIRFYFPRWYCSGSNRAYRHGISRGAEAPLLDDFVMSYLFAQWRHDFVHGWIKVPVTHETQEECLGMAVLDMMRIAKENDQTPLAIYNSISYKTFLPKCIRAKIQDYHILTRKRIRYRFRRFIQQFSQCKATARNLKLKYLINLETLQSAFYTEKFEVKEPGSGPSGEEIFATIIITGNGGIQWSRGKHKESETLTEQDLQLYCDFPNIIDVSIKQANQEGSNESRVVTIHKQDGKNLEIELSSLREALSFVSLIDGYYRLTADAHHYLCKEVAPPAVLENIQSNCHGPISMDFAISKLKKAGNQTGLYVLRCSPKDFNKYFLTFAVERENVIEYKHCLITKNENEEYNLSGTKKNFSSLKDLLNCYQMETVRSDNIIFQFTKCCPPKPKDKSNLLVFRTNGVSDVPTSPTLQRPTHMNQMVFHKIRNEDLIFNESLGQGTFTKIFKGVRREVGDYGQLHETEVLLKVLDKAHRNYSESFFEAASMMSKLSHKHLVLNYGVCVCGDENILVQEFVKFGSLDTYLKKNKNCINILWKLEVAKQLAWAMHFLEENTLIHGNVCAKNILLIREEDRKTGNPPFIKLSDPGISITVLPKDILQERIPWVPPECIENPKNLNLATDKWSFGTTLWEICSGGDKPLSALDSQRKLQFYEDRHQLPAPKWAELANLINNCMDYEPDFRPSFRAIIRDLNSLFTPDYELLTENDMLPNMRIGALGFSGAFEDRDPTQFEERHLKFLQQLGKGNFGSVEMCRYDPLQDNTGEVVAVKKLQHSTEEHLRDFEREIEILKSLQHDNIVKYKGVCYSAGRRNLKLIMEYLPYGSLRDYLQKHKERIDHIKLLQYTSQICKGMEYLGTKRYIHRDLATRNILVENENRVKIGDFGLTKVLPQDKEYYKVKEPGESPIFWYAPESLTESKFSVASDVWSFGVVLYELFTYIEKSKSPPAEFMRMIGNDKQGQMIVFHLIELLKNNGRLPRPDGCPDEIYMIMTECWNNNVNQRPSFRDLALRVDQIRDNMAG
JAK3, sequence (P52333 whole entry): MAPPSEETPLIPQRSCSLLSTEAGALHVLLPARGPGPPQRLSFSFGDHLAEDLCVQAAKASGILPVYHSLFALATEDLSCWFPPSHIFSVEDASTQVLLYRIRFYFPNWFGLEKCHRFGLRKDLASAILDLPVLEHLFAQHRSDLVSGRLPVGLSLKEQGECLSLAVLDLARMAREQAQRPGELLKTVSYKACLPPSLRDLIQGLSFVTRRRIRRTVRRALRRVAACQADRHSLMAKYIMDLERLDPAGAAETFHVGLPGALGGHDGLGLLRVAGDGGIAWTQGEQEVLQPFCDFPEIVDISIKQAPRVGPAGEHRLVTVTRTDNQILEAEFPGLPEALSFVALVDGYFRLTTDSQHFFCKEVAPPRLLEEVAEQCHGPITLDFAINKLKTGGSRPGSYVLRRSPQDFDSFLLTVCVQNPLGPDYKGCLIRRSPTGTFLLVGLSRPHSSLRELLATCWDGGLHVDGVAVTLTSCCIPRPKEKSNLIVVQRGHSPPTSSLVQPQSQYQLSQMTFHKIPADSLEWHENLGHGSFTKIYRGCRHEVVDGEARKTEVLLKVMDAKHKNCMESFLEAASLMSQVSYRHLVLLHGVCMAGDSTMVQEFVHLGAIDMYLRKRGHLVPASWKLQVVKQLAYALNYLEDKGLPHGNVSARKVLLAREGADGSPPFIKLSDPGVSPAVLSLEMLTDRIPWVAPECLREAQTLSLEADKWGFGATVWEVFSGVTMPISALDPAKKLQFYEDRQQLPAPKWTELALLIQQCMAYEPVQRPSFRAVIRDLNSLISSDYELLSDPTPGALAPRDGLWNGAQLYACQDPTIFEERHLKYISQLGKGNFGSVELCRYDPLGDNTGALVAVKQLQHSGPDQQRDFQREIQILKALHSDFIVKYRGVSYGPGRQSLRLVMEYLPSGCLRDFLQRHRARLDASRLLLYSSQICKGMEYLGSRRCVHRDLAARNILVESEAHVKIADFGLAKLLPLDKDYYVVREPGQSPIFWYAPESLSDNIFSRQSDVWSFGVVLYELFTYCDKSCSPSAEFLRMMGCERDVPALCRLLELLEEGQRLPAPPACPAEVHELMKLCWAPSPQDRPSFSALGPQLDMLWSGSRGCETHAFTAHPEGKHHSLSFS
TYK2, sequence (P29597 whole entry): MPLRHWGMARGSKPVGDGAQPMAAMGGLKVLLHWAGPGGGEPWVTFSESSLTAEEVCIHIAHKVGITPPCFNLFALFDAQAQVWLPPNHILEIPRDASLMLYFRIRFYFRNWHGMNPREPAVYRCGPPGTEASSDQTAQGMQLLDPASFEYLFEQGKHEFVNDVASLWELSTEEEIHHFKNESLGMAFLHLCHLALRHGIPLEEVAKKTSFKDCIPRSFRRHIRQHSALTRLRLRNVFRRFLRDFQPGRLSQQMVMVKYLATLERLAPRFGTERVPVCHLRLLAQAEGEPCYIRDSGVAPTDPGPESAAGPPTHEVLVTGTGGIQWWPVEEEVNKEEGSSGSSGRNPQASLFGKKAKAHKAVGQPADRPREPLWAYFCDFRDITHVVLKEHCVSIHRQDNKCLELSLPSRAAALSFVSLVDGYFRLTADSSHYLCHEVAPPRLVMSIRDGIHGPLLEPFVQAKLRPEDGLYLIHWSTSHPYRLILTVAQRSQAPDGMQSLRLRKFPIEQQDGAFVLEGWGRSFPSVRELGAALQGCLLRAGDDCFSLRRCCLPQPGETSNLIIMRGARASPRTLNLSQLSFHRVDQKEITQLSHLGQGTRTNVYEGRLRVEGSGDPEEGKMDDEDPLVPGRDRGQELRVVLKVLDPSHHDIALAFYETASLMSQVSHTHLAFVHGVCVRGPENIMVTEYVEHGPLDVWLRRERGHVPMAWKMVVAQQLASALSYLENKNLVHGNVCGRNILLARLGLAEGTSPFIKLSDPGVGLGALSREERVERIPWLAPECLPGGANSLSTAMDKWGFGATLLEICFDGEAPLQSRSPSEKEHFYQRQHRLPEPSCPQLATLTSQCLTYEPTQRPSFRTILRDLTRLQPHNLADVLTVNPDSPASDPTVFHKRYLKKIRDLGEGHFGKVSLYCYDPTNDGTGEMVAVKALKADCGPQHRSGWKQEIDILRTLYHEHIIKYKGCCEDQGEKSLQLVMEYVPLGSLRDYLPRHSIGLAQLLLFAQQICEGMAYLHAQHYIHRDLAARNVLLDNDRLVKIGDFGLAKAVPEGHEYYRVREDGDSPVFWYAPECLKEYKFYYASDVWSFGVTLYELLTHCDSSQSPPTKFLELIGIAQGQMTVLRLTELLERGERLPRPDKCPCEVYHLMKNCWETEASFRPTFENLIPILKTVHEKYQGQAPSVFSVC

Regarding `CCc1cc(O)c(F)cc1-c1cc2[nH]nc(C(=O)NC)c2c(NCc2ccccc2N(C)S(C)(=O)=O)n1` [Example 19, 6-(2-ethyl-5-fluoro-4-hydroxyphenyl)-N-methyl-4-({2-[methyl(methylsulfonyl)amino]benzyl}amino)-1H-pyrazolo[4,3-c]pyridine-3-carboxamide], the results for the pIC50 in assay [1] and in assay [2] were 7.92 and 7.69, respectively.

For `CCc1cc(O)c(F)cc1-c1cc2[nH]nc(C(=O)NC)c2c(NCCc2ccc(NS(=O)(=O)c3ccccc3)cc2)n1` [Example 23, 6-(2-ethyl-5-fluoro-4-hydroxyphenyl)-N-methyl-4-[(2-{4-[(phenylsulfonyl)amino]phenyl}ethyl)amino]-1H-pyrazolo[4,3-c]pyridine-3-carboxamide], the pIC50 was 7.08 in assay [3]; 8.24 in assay [4]; 7.29 in assay [1]; 7.59 in assay [5]; 6.96 in assay [6].

In the case of `CNC(=O)c1n[nH]c2cc(-c3cc(F)c(O)cc3CC(F)(F)F)nc(NCc3ccccc3N(CCO)S(C)(=O)=O)c12` [Example 24, 6-[5-fluoro-4-hydroxy-2-(2,2,2-trifluoroethyl)phenyl]-4-({2-[(2-hydroxyethyl)(methylsulfonyl)amino]benzyl}amino)-N-methyl-1H-pyrazolo[4,3-c]pyridine-3-carboxamide], the pIC50 in assay [3] is 7.52; in assay [4], 8.54; in assay [1] it was 6.65; in assay [5] it was 7.78; in assay [6], 7.16.

`CN(c1ccccc1CNc1nc(-c2cc(F)c(O)cc2CC(F)(F)F)cc2[nH]nc(C(N)=O)c12)S(=O)(=O)c1ccccc1` [Example 26, 6-[5-fluoro-4-hydroxy-2-(2,2,2-trifluoroethyl)phenyl]-4-({2-[methyl(phenylsulfonyl)amino]benzyl}amino)-1H-pyrazolo[4,3-c]pyridine-3-carboxamide]: the pIC50 in assay [3] was 6.66; in assay [4], 7.70; in assay [1], 6.90; in assay [5] it was 7.04; in assay [6] it was 6.53.

In the case of `CCc1cc(O)c(F)cc1-c1cc2[nH]nc(C(=O)NC)c2c(NCc2cc(O)ccc2N(C)S(C)(=O)=O)n1` [Example 31, 6-(2-Ethyl-5-fluoro-4-hydroxyphenyl)-4-({5-hydroxy-2-[methyl (methylsulfonyl)amino]benzyl}amino)-N-methyl-1H-pyrazolo[4,3-c]pyridine-3-carboxamide], the results for the pIC50 in assay [1] and in assay [2] were 7.13 and 7.32, respectively.

For the compound `CNC(=O)c1n[nH]c2cc(-c3cc(F)c(O)cc3CC(F)(F)F)nc(NCc3ccc(O)cc3N(C)S(C)(=O)=O)c12` [Example 33, 6-[5-fluoro-4-hydroxy-2-(2,2,2-trifluoroethyl)phenyl]-4-({4-hydroxy-2-[methyl(methylsulfonyl)amino]benzyl}amino)-N-methyl-1H-pyrazolo[4,3-c]pyridine-3-carboxamide], the pIC50 is 6.55 in assay [3]; 8.24 in assay [4]; 6.31 in assay [1]; 7.60 in assay [5]; 7.12 in assay [6].

With `CNC(=O)c1n[nH]c2cc(-c3cc(F)c(O)cc3CC(F)(F)F)nc(NCc3cc(O)ccc3N(C)S(=O)(=O)c3ccccc3)c12` [Example 35, 6-[5-fluoro-4-hydroxy-2-(2,2,2-trifluoroethyl)phenyl]-4-({5-hydroxy-2-[methyl(phenylsulfonyl)amino]benzyl}amino)-N-methyl-1H-pyrazolo[4,3-c]pyridine-3-carboxamide], the pIC50 in assay [3] was 6.59; in assay [4], 7.40; in assay [1], 6.36; in assay [5], 6.60; in assay [6] it was 6.09.

`CNC(=O)c1n[nH]c2cc(-c3cc(F)c(O)cc3CC(F)(F)F)nc(NCc3cc(O)ccc3N(C)S(=O)(=O)c3cccnc3)c12` [Example 54, 6-[5-fluoro-4-hydroxy-2-(2,2,2-trifluoroethyl)phenyl]-4-({5-hydroxy-2-[methyl(pyridin-3-ylsulfonyl)amino]benzyl}amino)-N-methyl-1H-pyrazolo[4,3-c]pyridine-3-carboxamide]: the pIC50 in assay [3] is 7.59; in assay [4] it was 8.21; in assay [1], 6.87; in assay [5], 7.48; in assay [6], 6.91.

For `CCc1cc(O)c(F)cc1-c1cc2[nH]nc(C(=O)Nc3ccc(C)nc3)c2c(NCc2ccccc2N(C)S(C)(=O)=O)n1` [Example 56, 6-(2-ethyl-5-fluoro-4-hydroxyphenyl)-4-({2-[methyl(methylsulfonyl)amino]benzyl}amino)-N-(6-methylpyridin-3-yl)-1H-pyrazolo[4,3-c]pyridine-3-carboxamide], the pIC50 in assay [1] was 6.56; in assay [2], 7.27.

For `Cc1ccc(NC(=O)c2n[nH]c3cc(-c4cc(F)c(O)cc4CC(F)(F)F)nc(NCc4ccccc4N(C)S(C)(=O)=O)c23)cn1` [Example 76, 6-[5-Fluoro-4-hydroxy-2-(2,2,2-trifluoroethyl)phenyl]-4-({2-[methyl(methylsulfonyl)amino]-benzyl}amino)-N-(6-methylpyridin-3-yl)-1H-pyrazolo[4,3-c]pyridine-3-carboxamide], the negative logarithm of the IC50 (pIC50) was 6.49 in assay [1] and 6.92 in assay [2].

In the case of `CN(c1ccccc1CNc1nc(-c2cc(F)c(O)cc2CC(F)(F)F)cc2[nH]nc(C(N)=O)c12)S(C)(=O)=O` [Example 77, 6-[5-Fluoro-4-hydroxy-2-(2,2,2-trifluoroethyl)phenyl]-4-({2-[methyl(methylsulfonyl)amino]benzyl}amino)-1H-pyrazolo[4,3-c]pyridine-3-carboxamide], the pIC50 in assay [1] was 7.48; in assay [2] it was 7.22.

Turning to `Cc1cnc(N(C)S(C)(=O)=O)c(CNc2nc(-c3cc(F)c(O)cc3CC(F)(F)F)cc3[nH]nc(C(N)=O)c23)c1` [Example 86, 6-(5-fluoro-4-hydroxy-2-(2,2,2-trifluoroethyl)phenyl)-4-(((5-methyl-2-(N-methylmethylsulfonamido)pyridin-3-yl)methyl)amino)-1H-pyrazolo[4,3-c]pyridine-3-carboxamide], the pIC50 in assay [3] is 5.32; in assay [4], 7.42; in assay [1] it was 6.37; in assay [5] it was 6.96; in assay [6], 7.09.

With `CN(c1ccc(O)cc1CNc1nc(-c2cc(F)c(O)cc2CC(F)(F)F)cc2[nH]nc(C(N)=O)c12)S(C)(=O)=O` [Example 92, 6-[5-Fluoro-4-hydroxy-2-(2,2,2-trifluoroethyl)phenyl]-4-({5-hydroxy-2-[methyl(methylsulfonyl)amino]benzyl}amino)-1H-pyrazolo[4,3-c]pyridine-3-carboxamide], the pIC50 in assay [1] is 6.40; in assay [2], 6.46.

With `CCc1cc(O)c(F)cc1-c1cc2[nH]ncc2c(NCc2c(F)cccc2N(C)S(C)(=O)=O)n1` [Example 134, N-[2-({[6-(2-ethyl-5-fluoro-4-hydroxyphenyl)-1H-pyrazolo[4,3-c]pyridin-4-yl]amino}methyl)-3-fluorophenyl]-N-methylmethanesulfonamide hydrochloride], the pIC50 in assay [2] was 6.59.

In general, pIC50 refers to the IC50 on a negative log10 scale, so that one unit is a factor of ten. The low end stands for a high IC50, the high end for a low IC50.
